Assay results published in patent publication US11591297B2, “Compound having PD-L1 expression-suppressing action” (TOHOKU UNIVERSITY, priority 2019, dated 2023).

test system: PD-L1; test: Inhibitory effect of PD-L1 expression by cell staining with anti-PD-L1 antibody in IFN-γ-treated THP-1 cells (flow cytometry); type: cell-based; settings: Homo sapiens, IFN-γ 25 ng/mL, 24±2 hours, subMFI anti-CD274-PC7, read-out: IC50 (50% PD-L1 expression inhibition concentration)
Procedure: The inhibitory effects of each compound of Examples 1 to 6 on the PD-L1 expression were evaluated according to the following procedures.
(1) Acute monocytic leukemia cell-derived THP-1 cells were suspended in RPMI medium containing 10% FCS and 1% P/S (hereinafter, referred to as “RPMI medium”) at 5×10^5 cells/mL to obtain a cell suspension, and the cell suspension was dispensed into each well of a 6 well-plate in an amount of 3 mL. In order to activate the THP-1 cells and express PD-L1 in the cells, IFN-γ (PEPROTECH, Cat. No. 300-02-100UG, >2e+7 U/mg) was added into each well at a concentration of 25 ng/mL (>500 U/mL). 50 mmol/L of the test compound solution was diluted with the medium (usually, in the range of 0.025 mmol/L to 1 mmol/L), and the diluted solution was added into each well in an amount of 60 μL. The plate was incubated in a CO2 incubator (at 37° C. and 5% CO2) for 24±2 hours. In the control group, only DMSO was added in place of the test compound. (2) A part of the prepared cell culture liquid was collected and the number of cells therein was counted using a cell counter (BIORAD TC-20). The cell culture liquid was centrifuged at 300×g for 5 minutes and the supernatant of the cell culture liquid was removed. The cells were suspended in calcium and magnesium free phosphate buffered saline (PBS−) containing 1% bovine serum albumin (BSA) at a cell concentration of 1 to 2×10^7 cells/mL to prepare a cell suspension. (3) Each cell suspension prepared in the above step (2) were added into a 5 mL tube in an amount of 25 μL. 2 μL of 2% normal mouse serum/PBS− was added into tubes, and the tubes were gently pipetted. The tubes were then allowed to stand at room temperature for 15 minutes. (4) Anti-CD274-PC7 antibody (BECKMAN COULTER, Cat. No. A78884) or mouse IgG1-PC7 antibody (BECKMAN COULTER, 737662) as control was added in each tube in an amount of 10 μL, and the tubes were gently stirred. The tubes were then allowed to stand in the dark on an ice bath for 30 minutes. (5) Foxp3/Transcription Factor Fix/Perm Concentrate (4×) (Cat. No. TNB-1020-L050) (A solution) supplied in FOXP3/Transcription Factor Staining kit (TONBO biosciences) was diluted in Foxp3/Transcription Factor Fix/Perm Diluent (1×) (Cat. No. TNB-1022-L160) (A dilution solution) to prepare a 1×A solution. (6) The 1×A solution was added into each tube in an amount of 1 mL, and the tubes were gently pipetted and stirred. The tubes were then allowed to stand in the dark at room temperature for 30 minutes and centrifuged at 300×g for 5 minutes, and then the supernatants therein were removed. (7) 2 mL of 1% BSA/PBS− was added into each tube and the tubes were gently stirred and centrifuged at 300×g for 5 minutes, and then the supernatants therein were removed. (8) The cells therein were suspended in 0.5 mL of 1% BSA/PBS- and measured with a flow cytometer (Sony: Cell Sorter SH800) within 2 hours. The results were analyzed with a software, FlowJo (Tree Star Inc.). The mean peak fluorescence intensity (MFI) of PD-L1 and mean peak fluorescence intensity of IgG1 were calculated from histograms of the measured fluorescence intensity and number of cells, and the mean fluorescence intensity of IgG1 was subtracted from that of PD-L1 to calculate the subMFI. The experiments were performed in n=2.
The subMFI values of the control cells calculated by the FlowJo analysis and the cells cultured with the addition of the test compounds at each concentration (test cells) were input into an Excel file, and the percentages of the subMFI values of the test cells at each concentration to the average subMFI value of control cells were calculated. The regression line was determined from the percentages of the subMFI values of the test cells at each concentration by the method of least squares to calculate the 50% PD-L1 expression inhibition concentration (IC50 value) of each compound.

Compound | IC50 [nM]
O=C(Nc1ccc(Oc2ccc(C(F)(F)F)cc2)cc1)C1CCCN(C(=O)c2ccc([N+](=O)[O-])cc2)C1 (stereo not shown) [Example 2, 1-(4-Nitrobenzoyl)-N-(4-(4-(trifluoromethyl)phenoxy)phenyl) piperidine-3-carboxamide] | 1200
COc1cc(C(=O)N2CCCC(C(=O)Nc3ccc(Oc4ccc(C(F)(F)F)cc4)cc3)C2)ccc1O (stereo not shown) [Example 3, 1-(4-Hydroxy-3-methoxybenzoyl)-N-(4-(4-(trifluoromethyl)phenoxy)phenyl)piperidine-3-carboxamide] | 930
O=C(Nc1ccc(Oc2ccc(S(F)(F)(F)(F)F)cc2)cc1)C1CCCN(C(=O)c2ccc([N+](=O)[O-])cc2)C1 (stereo not shown) [Example 5, 1-(4-Nitrobenzoyl)-N-(4-(4-(pentafluorosulfanyl)phenoxy)phenyl)piperidine-3-carboxamide] | 670
COc1cc(C(=O)N2CCCC(C(=O)Nc3ccc(Oc4ccc(S(F)(F)(F)(F)F)cc4)cc3)C2)ccc1O (stereo not shown) [Example 6, 1-(4-Hydroxy-3-methoxybenzoyl)-N-(4-(4-(pentafluorosulfanyl)phenoxy)phenyl)piperidine-3-carboxamide] | 830
